Measurements as given in paper PMC6952396, “Structural basis for itraconazole-mediated NPC1 inhibition” (Nature Communications, 2020).

Columns and labels:
[1] = test system: NPC1 mutants (W381E, L613E, Y628S, I685S, and Y1225E); experiment: Cross-linking of P-X to NPC1 binding-site mutants in intact HEK293S cells; type: cell-based, human; details: 0.3 μM P-X
Description: The I-Br binds to a hydrophobic cavity that is generated by the SSD, the MLD and the CTD in the center of NPC1 (Fig. 3d). Residues in the N-terminal loop and C-terminal helices of the MLD and the CTD, as well as TMs 3, 4, 5, and 13 contribute to the cavity that accommodates I-Br (Figs. 3d, 4a, b). The terminal sec-butyl moiety of I-Br inserts into the cavity and is contacted by residues W381, I609, L613, I685, F1087, I1220, and Y1225 (Fig. 4a, b). […] To validate our structural observation, we have generated five NPC1 mutants (W381E, L613E, Y628S, I685S, and Y1225E) located in the binding site and individually transfected the mutant cDNAs into HEK293S cells.
pNPC1 encoding wild-type human NPC1 (amino acids 1–1278) followed sequentially by three tandem copies of the Flag epitope tag ([…]) was constructed into pcDNA3.1. Expression is achieved with the cytomegalovirus (CMV) promoter. […]
For cross-linking of P-X to NPC1 and mutants in intact cells, the mammalian HEK-293S GnTI^- cells (ATCC, CRL-3022) overexpressing NPC1 and mutants were set up in 500 mL of freestyle medium with 2% FCS at a density of 2 × 10^6 cells per ml. […] An aliquot of each sample was subjected to 8% SDS/PAGE, and fluorescent-labeled proteins were visualized by in-gel fluorescence as described above. […]

human NPC1 = test system: T1, human NPC1; details: NPC1 reconstituted in lipid nanodiscs; cited from earlier work
T1 construct: Strep-tag; made in house; host or cells: HEK-293S GnTI- cells (baculovirus-mediated transduction)

NPC1 = biological target: T2, NPC1 (Cricetulus griseus, UniProt Q9JLG3); details: cited from earlier work; for inhibition of P-X cross-linking to NPC1: cultured cells
T2 construct: CHO-7 cells in the medium are deprived of cholesterol to induce the LDL receptors biosynthesis; endogenous in cells; host or cells: CHO-7 cells
T2 sequence (Q9JLG3 23-1277): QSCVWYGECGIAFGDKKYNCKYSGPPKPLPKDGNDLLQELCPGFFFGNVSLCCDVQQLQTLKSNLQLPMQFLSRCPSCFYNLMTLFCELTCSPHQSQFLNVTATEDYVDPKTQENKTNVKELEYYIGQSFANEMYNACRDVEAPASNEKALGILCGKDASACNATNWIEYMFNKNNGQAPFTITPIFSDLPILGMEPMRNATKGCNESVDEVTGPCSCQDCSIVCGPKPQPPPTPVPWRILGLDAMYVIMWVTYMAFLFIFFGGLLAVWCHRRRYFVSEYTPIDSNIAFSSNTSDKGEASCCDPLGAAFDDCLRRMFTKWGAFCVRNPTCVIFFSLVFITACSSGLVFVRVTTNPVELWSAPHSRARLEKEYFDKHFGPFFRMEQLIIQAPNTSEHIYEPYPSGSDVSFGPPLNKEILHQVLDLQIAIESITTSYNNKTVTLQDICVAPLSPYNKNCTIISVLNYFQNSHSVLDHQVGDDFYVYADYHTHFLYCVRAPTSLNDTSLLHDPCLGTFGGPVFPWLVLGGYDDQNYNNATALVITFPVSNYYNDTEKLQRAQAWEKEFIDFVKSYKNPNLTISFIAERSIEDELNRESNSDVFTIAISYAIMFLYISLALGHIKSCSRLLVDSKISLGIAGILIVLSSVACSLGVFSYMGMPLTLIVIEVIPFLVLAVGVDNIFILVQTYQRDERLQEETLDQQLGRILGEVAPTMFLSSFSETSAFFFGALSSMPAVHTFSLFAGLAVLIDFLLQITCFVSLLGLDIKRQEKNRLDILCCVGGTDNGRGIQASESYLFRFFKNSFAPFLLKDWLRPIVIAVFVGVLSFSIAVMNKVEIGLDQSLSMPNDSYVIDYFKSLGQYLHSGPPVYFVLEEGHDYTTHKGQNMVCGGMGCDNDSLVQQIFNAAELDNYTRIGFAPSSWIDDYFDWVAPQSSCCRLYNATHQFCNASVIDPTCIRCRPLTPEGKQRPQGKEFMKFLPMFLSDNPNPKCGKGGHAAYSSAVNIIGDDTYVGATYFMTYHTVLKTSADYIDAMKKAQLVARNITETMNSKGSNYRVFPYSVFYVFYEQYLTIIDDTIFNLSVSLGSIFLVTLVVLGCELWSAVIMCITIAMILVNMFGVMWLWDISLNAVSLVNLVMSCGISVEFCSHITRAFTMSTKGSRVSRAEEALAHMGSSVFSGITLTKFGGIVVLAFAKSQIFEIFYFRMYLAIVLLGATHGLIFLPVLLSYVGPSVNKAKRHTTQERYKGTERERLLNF

[2] = test system: NPC1-mediated cholesterol export; details: cited from earlier work

| SMILES | cross-linking of P-X to NPC1 mutants in cells [1] | cross-linking of P-X to purified NPC1 (human NPC1) | cross-linking of P-X to NPC1 in cultured cells (NPC1; added at nanomolar concentration) | inhibition of P-X cross-linking to NPC1 (NPC1) | inhibition of cholesterol export from lysosomes [2] |
| --- | --- | --- | --- | --- | --- |
| C#CCOc1ccc(C(=O)c2ccc(C(=O)OC(C)C(CC)n3ncn(-c4ccc(N5CCN(c6ccc(OCC7COC(Cn8cncn8)(c8ccc(F)cc8F)O7)cc6)CC5)cc4)c3=O)cc2)cc1 (stereo not drawn) [P-X] | not efficiently cross-linked | cross-linked | can be cross-linked |  |  |
| CC(=O)N1CCN(c2ccc(OCC3COC(Cn4ccnc4)(c4ccc(Cl)cc4Cl)O3)cc2)CC1 (stereo not drawn) [Ketoconazole, ketoconazole] |  |  |  | did not block |  |
| CCC(C)n1ncn(-c2ccc(N3CCN(c4ccc(OCC5COC(Cn6cncn6)(c6ccc(Cl)cc6Cl)O5)cc4)CC3)cc2)c1=O (stereo not drawn) [Itraconazole mixture, itraconazole] |  |  |  | inhibited | inhibit cholesterol export from lysosomes |
